Data: ChEMBL document CHEMBL6127128, “Discovery of the First-in-Class Dual-Target ROCK/HDAC Inhibitor with Potent Antitumor Efficacy in Vivo That Trigger Antitumor Immunity” (J Med Chem, 2024)

Legend:
[1] = biological target: Rho-associated protein kinase 1 (Homo sapiens, UniProt Q13464); assay: Inhibition of N-terminal GST-tagged human recombinant ROCK1 (17 to 535 residues) expressed in baculovirus-infected Sf9 cells by HTRF KinEASE assay
[2] = biological target: Rho-associated protein kinase 2 (Homo sapiens, UniProt O75116); assay: Inhibition of N-terminal GST-tagged human recombinant wild type ROCK2 (1 to 553 residues) expressed in baculovirus-infected Sf21 cells by HTRF KinEASE assay
Rho-associated protein kinase 2, sequence (O75116 whole entry, the tested form may be a part): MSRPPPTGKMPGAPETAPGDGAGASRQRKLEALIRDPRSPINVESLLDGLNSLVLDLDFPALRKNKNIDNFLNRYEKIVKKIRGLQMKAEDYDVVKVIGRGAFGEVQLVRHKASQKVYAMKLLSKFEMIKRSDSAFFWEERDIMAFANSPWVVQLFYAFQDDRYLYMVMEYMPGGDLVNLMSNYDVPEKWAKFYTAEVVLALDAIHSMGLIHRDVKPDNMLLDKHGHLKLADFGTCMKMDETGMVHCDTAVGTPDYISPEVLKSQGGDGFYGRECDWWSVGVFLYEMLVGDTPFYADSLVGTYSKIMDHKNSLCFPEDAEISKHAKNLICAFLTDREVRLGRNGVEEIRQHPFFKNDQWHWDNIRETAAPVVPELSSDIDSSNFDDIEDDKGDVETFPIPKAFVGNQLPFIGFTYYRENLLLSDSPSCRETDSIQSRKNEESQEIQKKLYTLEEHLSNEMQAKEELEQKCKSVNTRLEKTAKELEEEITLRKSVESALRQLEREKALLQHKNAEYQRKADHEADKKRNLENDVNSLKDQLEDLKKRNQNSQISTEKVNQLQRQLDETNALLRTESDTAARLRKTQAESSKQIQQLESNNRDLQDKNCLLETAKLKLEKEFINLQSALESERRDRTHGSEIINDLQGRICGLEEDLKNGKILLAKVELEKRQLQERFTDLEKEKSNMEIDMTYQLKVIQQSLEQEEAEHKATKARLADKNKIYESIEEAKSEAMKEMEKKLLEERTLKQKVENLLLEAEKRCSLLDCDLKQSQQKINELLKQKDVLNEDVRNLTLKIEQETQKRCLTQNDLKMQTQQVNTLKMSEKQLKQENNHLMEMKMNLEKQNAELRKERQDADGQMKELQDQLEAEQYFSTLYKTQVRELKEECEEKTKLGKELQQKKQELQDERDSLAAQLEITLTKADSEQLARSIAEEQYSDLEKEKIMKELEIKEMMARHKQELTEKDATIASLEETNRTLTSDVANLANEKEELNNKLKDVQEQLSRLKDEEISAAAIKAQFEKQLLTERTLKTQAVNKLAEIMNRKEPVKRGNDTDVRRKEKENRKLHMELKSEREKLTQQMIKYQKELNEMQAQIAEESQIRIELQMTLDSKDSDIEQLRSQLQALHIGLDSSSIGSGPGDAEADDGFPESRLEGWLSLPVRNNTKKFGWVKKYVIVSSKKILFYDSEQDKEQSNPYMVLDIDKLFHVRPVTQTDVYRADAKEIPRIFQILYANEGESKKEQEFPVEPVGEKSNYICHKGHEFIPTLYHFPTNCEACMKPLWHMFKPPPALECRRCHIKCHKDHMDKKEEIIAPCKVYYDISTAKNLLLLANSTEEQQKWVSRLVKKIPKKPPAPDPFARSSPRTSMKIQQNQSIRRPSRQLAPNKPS

[3] = biological target: Histone deacetylase 2 (Homo sapiens, UniProt Q92769); assay: Inhibition of HDAC2 (unknown origin) using Ac-Leu-Gly-Lys(Ac)-AMC as substrate preincubated for 5 mins followed by substrate addition for 30 mins and measured following trypsin addition for 30 mins by fluorescence based analysis
Histone deacetylase 2, sequence (Q92769 whole entry): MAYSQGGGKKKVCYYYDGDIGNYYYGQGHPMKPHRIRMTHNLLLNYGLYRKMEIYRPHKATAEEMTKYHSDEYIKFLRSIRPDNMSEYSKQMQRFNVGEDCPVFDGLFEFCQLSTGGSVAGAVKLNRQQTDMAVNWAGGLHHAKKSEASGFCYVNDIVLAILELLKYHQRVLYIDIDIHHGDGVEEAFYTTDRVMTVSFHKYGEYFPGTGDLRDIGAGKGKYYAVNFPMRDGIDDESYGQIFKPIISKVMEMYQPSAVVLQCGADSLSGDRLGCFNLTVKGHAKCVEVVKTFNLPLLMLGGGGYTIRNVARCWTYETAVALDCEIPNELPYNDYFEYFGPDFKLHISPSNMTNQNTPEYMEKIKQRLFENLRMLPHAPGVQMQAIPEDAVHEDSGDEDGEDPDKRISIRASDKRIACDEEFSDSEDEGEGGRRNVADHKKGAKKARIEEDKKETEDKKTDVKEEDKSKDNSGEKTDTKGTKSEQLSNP

[4] = biological target: Histone deacetylase 3 (Homo sapiens, UniProt O15379); assay: Inhibition of HDAC3 (unknown origin) using Ac-Leu-Gly-Lys(Ac)-AMC as substrate preincubated for 5 mins followed by substrate addition for 30 mins and measured following trypsin addition for 30 mins by fluorescence based analysis
Histone deacetylase 3, sequence (O15379 whole entry): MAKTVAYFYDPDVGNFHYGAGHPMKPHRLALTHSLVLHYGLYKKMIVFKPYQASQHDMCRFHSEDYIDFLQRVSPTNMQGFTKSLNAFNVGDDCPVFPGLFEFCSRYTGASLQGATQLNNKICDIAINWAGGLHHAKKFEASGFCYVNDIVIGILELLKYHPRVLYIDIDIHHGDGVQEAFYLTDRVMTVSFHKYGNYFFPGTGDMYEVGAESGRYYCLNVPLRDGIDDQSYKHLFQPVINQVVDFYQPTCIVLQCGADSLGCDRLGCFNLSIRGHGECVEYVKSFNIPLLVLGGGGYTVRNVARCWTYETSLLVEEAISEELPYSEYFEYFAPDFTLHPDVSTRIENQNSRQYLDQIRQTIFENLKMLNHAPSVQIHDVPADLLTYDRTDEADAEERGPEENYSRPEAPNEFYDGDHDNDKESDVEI

[5] = biological target: Histone deacetylase 4 (Homo sapiens, UniProt P56524); assay: Inhibition of HDAC4 (unknown origin) using Ac-Leu-Gly-Lys(tfa)-AMC as substrate preincubated for 5 mins followed by substrate addition for 30 mins and measured following trypsin addition for 30 mins by fluorescence based analysis
[6] = biological target: T1, Histone deacetylase 8 (Homo sapiens, UniProt Q9BY41); assay: Inhibition of HDAC8 (unknown origin) using Ac-Leu-Gly-Lys(tfa)-AMC as substrate preincubated for 5 mins followed by substrate addition for 30 mins and measured following trypsin addition for 30 mins by fluorescence based analysis
T1 sequence (Q9BY41 whole entry): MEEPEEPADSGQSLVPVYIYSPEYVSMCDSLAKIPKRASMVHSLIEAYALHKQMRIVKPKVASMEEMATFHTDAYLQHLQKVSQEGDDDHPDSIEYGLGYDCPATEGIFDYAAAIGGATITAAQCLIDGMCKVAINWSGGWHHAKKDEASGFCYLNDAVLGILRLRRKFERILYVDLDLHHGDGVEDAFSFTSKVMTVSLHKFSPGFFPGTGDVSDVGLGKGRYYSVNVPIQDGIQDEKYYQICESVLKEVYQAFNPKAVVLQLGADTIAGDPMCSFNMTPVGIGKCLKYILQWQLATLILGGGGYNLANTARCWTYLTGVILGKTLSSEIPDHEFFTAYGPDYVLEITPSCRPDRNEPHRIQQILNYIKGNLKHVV

[7] = biological target: Histone deacetylase 9 (Homo sapiens, UniProt Q9UKV0); assay: Inhibition of HDAC9 (unknown origin) using Ac-Leu-Gly-Lys(tfa)-AMC as substrate preincubated for 5 mins followed by substrate addition for 30 mins and measured following trypsin addition for 30 mins by fluorescence based analysis
Histone deacetylase 9, sequence (Q9UKV0 whole entry): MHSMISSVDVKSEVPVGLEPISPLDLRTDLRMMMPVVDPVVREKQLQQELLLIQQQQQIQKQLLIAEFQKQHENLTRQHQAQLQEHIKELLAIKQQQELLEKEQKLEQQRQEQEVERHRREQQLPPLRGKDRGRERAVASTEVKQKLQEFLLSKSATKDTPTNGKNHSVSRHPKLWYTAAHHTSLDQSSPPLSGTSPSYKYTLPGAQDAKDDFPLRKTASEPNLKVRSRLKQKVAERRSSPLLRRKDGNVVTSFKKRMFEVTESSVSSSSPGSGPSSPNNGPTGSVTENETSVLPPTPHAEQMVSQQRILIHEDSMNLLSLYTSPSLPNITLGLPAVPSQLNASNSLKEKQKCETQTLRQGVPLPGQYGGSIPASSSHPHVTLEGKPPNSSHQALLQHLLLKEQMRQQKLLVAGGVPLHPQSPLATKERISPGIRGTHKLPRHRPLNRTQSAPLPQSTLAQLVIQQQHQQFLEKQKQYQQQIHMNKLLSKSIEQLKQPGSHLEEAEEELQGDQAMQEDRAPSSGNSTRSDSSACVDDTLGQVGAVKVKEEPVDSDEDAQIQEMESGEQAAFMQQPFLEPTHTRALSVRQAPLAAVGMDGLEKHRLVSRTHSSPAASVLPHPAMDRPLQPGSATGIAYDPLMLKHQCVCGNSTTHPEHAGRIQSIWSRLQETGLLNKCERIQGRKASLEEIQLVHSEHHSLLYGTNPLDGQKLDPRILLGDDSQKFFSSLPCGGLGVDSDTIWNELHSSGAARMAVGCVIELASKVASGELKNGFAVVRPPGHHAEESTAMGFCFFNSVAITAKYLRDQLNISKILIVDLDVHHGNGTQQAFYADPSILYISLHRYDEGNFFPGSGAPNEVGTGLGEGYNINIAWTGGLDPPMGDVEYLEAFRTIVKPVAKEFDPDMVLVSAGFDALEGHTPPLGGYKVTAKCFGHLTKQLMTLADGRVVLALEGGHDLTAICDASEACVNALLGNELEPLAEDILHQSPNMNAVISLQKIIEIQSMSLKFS

[8] = biological target: T2, Polyamine deacetylase HDAC10 (Homo sapiens, UniProt Q969S8); assay: Inhibition of HDAC10 (unknown origin) using Ac-Arg-His-Lys(Ac)-Lys(Ac)-AMC as substrate preincubated for 5 mins followed by substrate addition for 30 mins and measured following trypsin addition for 30 mins by fluorescence based analysis
T2 sequence (Q969S8 whole entry): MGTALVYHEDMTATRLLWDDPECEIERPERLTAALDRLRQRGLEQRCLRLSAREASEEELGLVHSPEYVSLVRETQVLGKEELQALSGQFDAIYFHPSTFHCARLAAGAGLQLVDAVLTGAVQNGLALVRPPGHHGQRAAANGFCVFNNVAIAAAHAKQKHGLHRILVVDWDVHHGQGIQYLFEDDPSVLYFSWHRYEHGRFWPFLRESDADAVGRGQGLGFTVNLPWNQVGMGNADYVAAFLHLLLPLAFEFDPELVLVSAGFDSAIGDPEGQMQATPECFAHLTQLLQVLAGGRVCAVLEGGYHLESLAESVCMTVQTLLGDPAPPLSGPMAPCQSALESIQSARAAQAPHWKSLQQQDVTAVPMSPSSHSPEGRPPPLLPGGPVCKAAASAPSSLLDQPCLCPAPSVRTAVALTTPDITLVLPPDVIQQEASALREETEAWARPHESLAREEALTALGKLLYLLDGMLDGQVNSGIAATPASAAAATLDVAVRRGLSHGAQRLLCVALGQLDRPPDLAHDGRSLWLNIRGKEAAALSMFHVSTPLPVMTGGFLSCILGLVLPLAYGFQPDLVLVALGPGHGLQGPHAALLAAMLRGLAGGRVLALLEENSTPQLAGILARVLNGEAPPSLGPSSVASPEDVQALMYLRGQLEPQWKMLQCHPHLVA

[9] = system: 4T1; assay: Antitumor activity against mouse 4T1 cells implanted in Balb/c mouse assessed as tumor weight at 50 mg/kg, po administered daily for 15 days; type: functional; conditions: time 15 day
[10] = system: 4T1; assay: animal or person; type: functional; conditions: Mus musculus, 4T1, 360 h, route po, time 15 day, read-out: TGI
Description: Antitumor activity against mouse 4T1 cells implanted in Balb/c mouse assessed as inhibition of tumor growth rate at 50 mg/kg, po administered daily for 15 days

[11] = Toxicity against Balb/c mouse implanted with mouse 4T1 cells assessed as effect on morphological changes in heart at 25 to 50 mg/kg, po administered daily for 15 days by Hematoxylin-Eosin staining based analysis; type: organism-based; conditions: in vivo, 360 h, dose 25-50 mg/kg, time 15 day
[12] = Toxicity against Balb/c mouse implanted with mouse 4T1 cells assessed as effect on morphological changes in kidneys at 25 to 50 mg/kg, po administered daily for 15 days by Hematoxylin-Eosin staining based analysis; type: organism-based; conditions: in vivo, 360 h, dose 25-50 mg/kg, time 15 day
[13] = Chemical stability of the compound in PBS buffer at pH 7.4 measured after 10 days; type: physicochemical; conditions: time 10 day, read-out: Stability
[14] = Half-life in Balb/c mouse at 50 mg/kg, po measured for 24 hrs by LC-MS/MS analysis; type: ADME, organism-based; conditions: in vivo
[15] = Oral bioavailability in Balb/c mouse at 50 mg/kg measured for 24 hrs by LC-MS/MS analysis; type: ADME, organism-based; conditions: in vivo

Rho-associated protein kinase 1, sequence (Q13464 whole entry, the tested form may be a part): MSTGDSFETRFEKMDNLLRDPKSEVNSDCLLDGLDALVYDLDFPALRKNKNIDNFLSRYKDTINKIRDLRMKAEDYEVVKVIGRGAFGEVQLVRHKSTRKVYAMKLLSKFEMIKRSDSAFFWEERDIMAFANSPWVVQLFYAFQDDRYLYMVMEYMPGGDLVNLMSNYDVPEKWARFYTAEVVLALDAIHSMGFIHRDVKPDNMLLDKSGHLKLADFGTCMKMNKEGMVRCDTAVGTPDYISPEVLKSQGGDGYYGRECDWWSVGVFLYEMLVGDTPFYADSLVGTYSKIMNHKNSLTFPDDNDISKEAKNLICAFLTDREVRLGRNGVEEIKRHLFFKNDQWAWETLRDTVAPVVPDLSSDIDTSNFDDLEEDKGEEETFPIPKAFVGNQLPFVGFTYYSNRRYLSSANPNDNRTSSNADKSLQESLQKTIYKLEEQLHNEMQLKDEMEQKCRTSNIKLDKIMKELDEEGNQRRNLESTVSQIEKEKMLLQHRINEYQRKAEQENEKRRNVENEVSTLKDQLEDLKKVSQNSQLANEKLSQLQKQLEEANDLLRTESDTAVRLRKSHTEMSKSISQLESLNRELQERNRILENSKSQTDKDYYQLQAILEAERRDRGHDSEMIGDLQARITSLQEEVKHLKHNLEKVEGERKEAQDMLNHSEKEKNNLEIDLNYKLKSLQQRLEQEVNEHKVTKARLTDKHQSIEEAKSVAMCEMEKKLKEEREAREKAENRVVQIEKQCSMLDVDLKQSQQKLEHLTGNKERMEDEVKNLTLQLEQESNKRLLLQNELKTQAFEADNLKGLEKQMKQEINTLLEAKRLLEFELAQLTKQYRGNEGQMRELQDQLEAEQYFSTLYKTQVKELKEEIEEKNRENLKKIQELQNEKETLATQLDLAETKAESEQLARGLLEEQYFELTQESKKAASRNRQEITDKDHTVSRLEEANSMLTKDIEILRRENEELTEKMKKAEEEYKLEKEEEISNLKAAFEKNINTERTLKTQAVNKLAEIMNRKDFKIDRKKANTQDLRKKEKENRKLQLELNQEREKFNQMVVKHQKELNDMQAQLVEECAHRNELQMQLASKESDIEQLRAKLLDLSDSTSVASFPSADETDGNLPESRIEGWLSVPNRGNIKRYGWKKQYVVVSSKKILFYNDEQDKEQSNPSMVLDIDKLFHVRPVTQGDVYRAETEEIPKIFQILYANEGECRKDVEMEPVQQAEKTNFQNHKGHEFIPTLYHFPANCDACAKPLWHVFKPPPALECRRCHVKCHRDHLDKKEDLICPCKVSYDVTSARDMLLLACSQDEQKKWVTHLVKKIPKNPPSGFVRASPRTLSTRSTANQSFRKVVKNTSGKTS

`O=C(CCCCCCNC(=O)c1cc2cc(-c3cn[nH]c3)ccc2s1)NO` gave an IC50 [1] of 58.2 nM, an IC50 [2] of 255 nM and an IC50 [3] of 8.03 nM. The IC50 [4] was 6.26 nM, the IC50 [5] was over 10 µM and the IC50 [6] was 7.69 nM. It also gave an IC50 [7] of over 10 µM, an IC50 [8] of over 10 µM and an Activity [9] of 0.16 g. For the same molecule, the inhibition in vivo at 50 mg/kg [10] was 69.4%, the Activity [11] was “Non-Toxic” and the Activity [12] was “Non-Toxic”. It also gave a remaining at 240 h [13] of 98.5%, a half-life [14] of 732 min and a bioavailability [15] of 0.13%.
